Values joined by “and” are separate entries in the source; they are usually repeats but may differ in a detail not shown here. Equal values may be shown once. Read-outs that look alike come from different tables or passages of the source.
Assay: Plasma pharmacokinetics after intraperitoneal injection in mouse (UPLC-MS/MS)
Type: in vivo
Settings: for concentration at 5 min / concentration at 0.167 h / concentration at 0.25 h / concentration at 0.5 h / concentration at 1 h / concentration at 2 h / concentration at 4 h / concentration at 8 h / half-life / MRT / AUC(0-inf) / Cmax / Tmax / AUC(0-t) / MRT inf / concentration at 6 h: male, ICR; for concentration at 5 min / concentration at 0.167 h / concentration at 0.25 h / concentration at 0.5 h / concentration at 1 h / concentration at 2 h / concentration at 4 h / concentration at 8 h / half-life / MRT / concentration at 6 h: plasma; for concentration at 5 min / concentration at 0.167 h / concentration at 0.25 h / concentration at 0.5 h / concentration at 1 h / concentration at 2 h / concentration at 4 h / concentration at 8 h / concentration at 6 h: ip; for MRT: read-out: mean residence time (MRT)(0-t); for AUC(0-inf) / Cmax / Tmax / AUC(0-t) / MRT inf / AUClast/D / AUC—% Extrap—obs / T1/2: mouse plasma, prototype drug; for AUC(0-t): read-out: AUClast; for MRT inf: read-out: MRTInf—obs
Description: Positive control drug 4-butyl-α-agarofuran preparation (BAF) and Compound 2 preparation were administered intraperitoneally at a dose of 10 mg/kg/10 ml (calculated according to the crude drug), and a suspension was prepared by ultrasonic grinding with double distilled water. Male ICR mice, with a weight of 21-24 g, were purchased from SPF (Beijing) Biotechnology Co., Ltd.
12 mice were randomly divided into 4 groups, there were 3 parallel cross blood sampling points in each group (5 points in groups 1 and 3, and 6 points in groups 2 and 4), it was administered according to the weight, and blood was collected from the orbital venous plexus at 5 min, 10 min, […], 30 min, 1 h, 2 h, 4 h, 6 h, 8 h, 12 h, and 24 h after administration. The bloods at each time point were collected into Eppendorf (EP) tubes anticoagulated with heparin, and placed on ice and centrifuged at 8000 r/min×5 min, to separate plasma for later use.
20 μl of mouse blank plasma was taken, 55 μl of acetonitrile containing an internal standard solution (200 ng/mL, BAF crude drug and Compound 2 crude drug are mutual internal standards, namely BAF was used as the internal standard of Compound 2, and Compound 2 was used as the internal standard of BAF, similarly hereinafter) is added, 5 μl of a methanol working solution of the compound BAF or Compound 2 with different concentrations was respectively added and mixed uniformly, so that its final plasma concentrations were 0.2, 0.5, 2, 5, 10, 25, 50, 100, 200, 500, 750, and 1000 ng/ml respectively, centrifugation was conducted twice at a high speed of 13000 r/min×5 min, and 5 μl of a supernatant was taken for UPLC-MS/MS analysis.
10 μL of plasma was taken, 30 μL of acetonitrile containing internal standard solution (100 ng/mL) was added to precipitate proteins, after the material was centrifuged twice at a high speed of 13000 r/min×5 min, 5 μl of a supernatant was taken for UPLC-MS/MS analysis.
Chromatographic column: Symmetry C8 (2.1 mm×50 mm, 3.5 μm), column temperature: 25° C., mobile phase: acetonitrile (0.1% formic acid): water (0.1% formic acid)=70:30 gradient elution, flow rate: 0.2 mL/min, Parallel Reaction Monitoring (PRM) detection, BAF: m/z 263.2→245.2; and Compound 2: m/z 317.2→299.2.

[1] = mouse, 10 mg/kg, IP 10 mg/kg, 5 min, read-out: Plasma concentration, Mean
[2] = mouse, 10 mg/kg, IP 10 mg/kg, 0.167 h, read-out: Plasma concentration, Mean
[3] = mouse, 10 mg/kg, IP 10 mg/kg, 0.167 h, read-out: Plasma concentration, individual mice 1-3
[4] = mouse, 10 mg/kg, IP 10 mg/kg, 0.25 h, read-out: Plasma concentration, Mean
[5] = mouse, 10 mg/kg, IP 10 mg/kg, 0.5 h, read-out: Plasma concentration, Mean
[6] = mouse, 10 mg/kg, IP 10 mg/kg, 0.5 h, read-out: Plasma concentration, individual mice 1-3
[7] = mouse, 10 mg/kg, IP 10 mg/kg, 1 h, read-out: Plasma concentration, Mean
[8] = mouse, 10 mg/kg, IP 10 mg/kg, 2 h, read-out: Plasma concentration, Mean
[9] = mouse, 10 mg/kg, IP 10 mg/kg, 2 h, read-out: Plasma concentration, individual mice 1-3
[10] = mouse, 10 mg/kg, IP 10 mg/kg, 4 h, read-out: Plasma concentration, Mean
[11] = mouse, 10 mg/kg, IP 10 mg/kg, 8 h, read-out: Plasma concentration, individual mice 1-3

## CCCCC1=CCC[C@@]2(C)CC[C@@H]3C[C@]12OC3(C)C [BAF, 4-butyl-α-agarofuran, reference compound]
IP 10 mg/kg, 5 min, 10 mg/kg
  Plasma concentration, individual mice 1-3: 413 ng/mL and 295 ng/mL and 194 ng/mL
IP 10 mg/kg, 0.167 h, 10 mg/kg
  Plasma concentration, individual mice 1-3: 133 ng/mL and 204 ng/mL
IP 10 mg/kg, 0.25 h, 10 mg/kg
  Plasma concentration, individual mice 1-3: 364 ng/mL and 132 ng/mL and 91.8 ng/mL
IP 10 mg/kg, 0.5 h, 10 mg/kg
  Plasma concentration, individual mice 1-3: 45.2 ng/mL and 38.9 ng/mL
IP 10 mg/kg, 1 h, 10 mg/kg
  Plasma concentration, individual mice 1-3: 54.6 ng/mL and 22.2 ng/mL and 24.4 ng/mL
IP 10 mg/kg, 2 h, 10 mg/kg
  Plasma concentration, individual mice 1-3: 6.91 ng/mL and 6.54 ng/mL
IP 10 mg/kg, 4 h, 10 mg/kg
  Plasma concentration, individual mice 1-3: 11.3 ng/mL and 2.09 ng/mL and 2.90 ng/mL
IP 10 mg/kg, 6 h
  Plasma concentration, individual mice 1-3: BLOQ
IP 10 mg/kg, 8 h, 10 mg/kg
  Plasma concentration, individual mice 1-3: BLOQ
IP 10 mg/kg, 12 h
  Plasma concentration, individual mice 1-3: BLOQ
IP 10 mg/kg, 24 h
  Plasma concentration, individual mice 1-3: BLOQ
[1]
  concentration at 5 min: 301 ng/mL
[2]
  concentration at 0.167 h: 179 ng/mL
[3]
  concentration at 0.167 h: 201 ng/mL
[4]
  concentration at 0.25 h: 196 ng/mL
[5]
  concentration at 0.5 h: 42 ng/mL
[6]
  concentration at 0.5 h: 41.9 ng/mL
[7]
  concentration at 1 h: 33.7 ng/mL
[8]
  concentration at 2 h: 6.52 ng/mL
[9]
  concentration at 2 h: 6.1 ng/mL
[10]
  concentration at 4 h: 5.4 ng/mL
[11]
  concentration at 8 h: 4.03 ng/mL
mouse, IP 10 mg/kg
  half-life: 1.29 h
  MRT: 1.05 h
IP 10 mg/kg
  AUC(0-inf): 139 ng·h/mL
  Cmax: 301 ng/mL
  Tmax: 5 min
  AUC(0-t): 129 ng·h/mL
  MRT inf: 1.05 h
  AUClast/D: 12.9 kg·ng·h/mL/mg
  AUC—% Extrap—obs: 7.24%
  T1/2: 1.29 h

## CC1(C)O[C@]23C[C@H]1CC[C@]2(C)CCC=C3CCCC(F)(F)F [Compound 2, (1R,6S,9R)6,10,10-trimethyl-2-(4,4,4-trifluorobutyl)-11-oxatricyclo [7.2.1.0^1,6]dodec-2-ene]
IP 10 mg/kg, 5 min, 10 mg/kg
  Plasma concentration, individual mice 1-3: 407 ng/mL and 585 ng/mL
IP 10 mg/kg, 0.167 h, 10 mg/kg
  Plasma concentration, individual mice 1-3: 198 ng/mL and 214 ng/mL
IP 10 mg/kg, 0.25 h, 10 mg/kg
  Plasma concentration, individual mice 1-3: 201 ng/mL and 196 ng/mL
IP 10 mg/kg, 0.5 h, 10 mg/kg
  Plasma concentration, individual mice 1-3: 59.8 ng/mL and 67.5 ng/mL
IP 10 mg/kg, 1 h, 10 mg/kg
  Plasma concentration, individual mice 1-3: 41.2 ng/mL and 32.1 ng/mL
IP 10 mg/kg, 2 h, 10 mg/kg
  Plasma concentration, individual mice 1-3: 17.9 ng/mL and 22.3 ng/mL
IP 10 mg/kg, 4 h, 10 mg/kg
  Plasma concentration, individual mice 1-3: 8.03 ng/mL and 6.56 ng/mL
IP 10 mg/kg, 6 h, 10 mg/kg
  Plasma concentration, individual mice 1-3: 3.20 ng/mL and 3.79 ng/mL
IP 10 mg/kg, 8 h, 10 mg/kg
  Plasma concentration, individual mice 1-3: BLOQ
IP 10 mg/kg, 12 h
  Plasma concentration, individual mice 1-3: BLOQ
IP 10 mg/kg, 24 h
  Plasma concentration, individual mice 1-3: BLOQ
[1]
  concentration at 5 min: 450 ng/mL
mouse, 10 mg/kg, IP 10 mg/kg, 5 min, read-out: Plasma concentration, individual mice 1-3
  concentration at 5 min: 359 ng/mL
[2]
  concentration at 0.167 h: 251 ng/mL
[3]
  concentration at 0.167 h: 341 ng/mL
[4]
  concentration at 0.25 h: 195 ng/mL
mouse, 10 mg/kg, IP 10 mg/kg, 0.25 h, read-out: Plasma concentration, individual mice 1-3
  concentration at 0.25 h: 188 ng/mL
[5]
  concentration at 0.5 h: 69.5 ng/mL
[6]
  concentration at 0.5 h: 81.1 ng/mL
[7]
  concentration at 1 h: 32.5 ng/mL
mouse, 10 mg/kg, IP 10 mg/kg, 1 h, read-out: Plasma concentration, individual mice 1-3
  concentration at 1 h: 24.3 ng/mL
[8]
  concentration at 2 h: 20 ng/mL
[9]
  concentration at 2 h: 19.7 ng/mL
[10]
  concentration at 4 h: 7.45 ng/mL
mouse, 10 mg/kg, IP 10 mg/kg, 4 h, read-out: Plasma concentration, individual mice 1-3
  concentration at 4 h: 7.77 ng/mL
mouse, 10 mg/kg, IP 10 mg/kg, 6 h, read-out: Plasma concentration, Mean
  concentration at 6 h: 3.56 ng/mL
mouse, 10 mg/kg, IP 10 mg/kg, 6 h, read-out: Plasma concentration, individual mice 1-3
  concentration at 6 h: 3.69 ng/mL
[11]
  concentration at 8 h: 3.17 ng/mL
mouse, IP 10 mg/kg
  half-life: 1.61 h
  MRT: 1.32 h
  AUC(0-t) as percentage of BAF: 142%
  Cmax as percentage of BAF: 150%
IP 10 mg/kg
  AUC(0-inf): 198 ng·h/mL
  Cmax: 450 ng/mL
  Tmax: 5 min
  AUC(0-t): 190 ng·h/mL
  MRT inf: 1.32 h
  AUClast/D: 19 kg·ng·h/mL/mg
  AUC—% Extrap—obs: 4.16%
  T1/2: 1.61 h
mouse, IP
  Pharmacokinetic properties compared with BAF: better pharmacokinetic properties
